Measurements reported in US20240059673A1, “SUBSTITUTED INDOLE COMPOUNDS” (Gilead Sciences, Inc., priority 2020, published 2024).

Columns and labels:
TLR9 = biological target: T1, TLR9 (Homo sapiens, UniProt Q9NR96); assay: Human PBMC cell-based assay, TLR9 agonist stimulation; settings: human PBMCs; TLR9 agonist ODN-2216 3 μM; 6 hours; cytokines (IL-6 and IFNα) in supernatant; Table 2; read-out: TLR-9 EC50
T1 construct: lymphocytes, monocytes and dendritic cells that express TLR7, TLR8 and TLR9; endogenous in cells; host or cells: cryopreserved human PBMCs from healthy donors
T1 sequence (Q9NR96 26-1032): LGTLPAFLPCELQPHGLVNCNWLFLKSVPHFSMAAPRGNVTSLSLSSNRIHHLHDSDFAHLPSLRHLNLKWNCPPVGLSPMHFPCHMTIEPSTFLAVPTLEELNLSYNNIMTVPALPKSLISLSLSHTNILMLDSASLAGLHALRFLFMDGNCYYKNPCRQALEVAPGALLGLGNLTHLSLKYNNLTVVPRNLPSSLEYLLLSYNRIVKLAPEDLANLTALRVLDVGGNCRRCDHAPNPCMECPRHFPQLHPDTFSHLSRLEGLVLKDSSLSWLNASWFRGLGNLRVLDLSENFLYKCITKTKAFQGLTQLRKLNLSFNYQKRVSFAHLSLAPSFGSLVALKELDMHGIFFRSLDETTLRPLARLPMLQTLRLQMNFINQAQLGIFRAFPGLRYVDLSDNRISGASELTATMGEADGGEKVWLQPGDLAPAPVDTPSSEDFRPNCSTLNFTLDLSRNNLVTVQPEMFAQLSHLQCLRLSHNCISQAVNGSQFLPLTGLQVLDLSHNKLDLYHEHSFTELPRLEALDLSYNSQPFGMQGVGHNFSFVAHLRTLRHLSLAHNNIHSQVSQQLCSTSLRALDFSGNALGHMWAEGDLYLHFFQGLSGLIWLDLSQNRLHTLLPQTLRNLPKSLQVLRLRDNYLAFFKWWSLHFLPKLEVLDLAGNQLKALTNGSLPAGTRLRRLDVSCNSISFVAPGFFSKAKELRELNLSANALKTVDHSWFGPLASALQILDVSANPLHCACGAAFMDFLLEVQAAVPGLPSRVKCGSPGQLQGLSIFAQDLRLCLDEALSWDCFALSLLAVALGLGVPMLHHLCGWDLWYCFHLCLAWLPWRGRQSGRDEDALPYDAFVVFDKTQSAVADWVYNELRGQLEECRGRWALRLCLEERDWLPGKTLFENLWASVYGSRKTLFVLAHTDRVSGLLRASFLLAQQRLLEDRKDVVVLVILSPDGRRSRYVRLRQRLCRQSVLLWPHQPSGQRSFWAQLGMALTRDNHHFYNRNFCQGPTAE
Source text: (§1) Human Peripheral Blood Mononuclear Cell (PBMC) Cell-Based Assay
(§2) Human peripheral blood mononuclear cells (PBMCs) consist of lymphocytes, monocytes and dendritic cells that express TLR7, TLR8 and TLR9. These cells respond to TLR7, TLR8 and TLR9 ligand stimulation and produce cytokines and chemokines in vitro and in vivo. Human PBMCs are therefore suitable to be used in a cell-based assay to assess the in vitro potency of a TLR 7, 8, and/or 9 antagonist. The result is expected to be more translatable to the pharmacodynamics response in vivo than cell line-based assays.
(§3) Cryopreserved human PBMCs from healthy donors were thawed and resuspended in RPMI-1640 media with L-glutamine (Corning) supplemented with 10% Fetal Bovine Serum (Hyclone) and 1× Penicillin-Streptomycin (Corning). After counting, the cell density was adjusted to 2 million cells/ml and incubated for 1 hour at 37° C., 5% CO2 for recovery. Following the recovery, the cells were plated by adding 50p per well (100,000 cells) to 384-well cell culture plates (Greiner) containing 250 nl of test antagonists in 100% DMSO per well, in a 10 points dose response in quadruplicates. PBMCs were incubated in the presence of test antagonists for one hour at 37° C., 5% CO2 before being stimulated with a TLR7 or TLR9 agonist. GS-986 (Gilead Sciences) was used as the TLR7 agonist at a final concentration of 400 nM. ODN-2216 (InvivoGen) was used as the TLR9 agonist at a final concentration of 3μM. PBMCs were incubated in the presence of the test antagonist and the TLR7 (or TLR9) agonist for an additional 6 hours at 37° C., 5% CO2. At the end of the incubation, the cell culture plates were centrifuged at 500 g for 5 min, and the cell culture supernatant was collected. The level of cytokines (IL-6 and IFNα) in the supernatant was measured by electrochemiluminescence immunoassays (Mesoscale Discovery) following manufacturer's recommended protocols. The level of cytokine measured was plotted against the test antagonist concentration and fitted to a sigmoidal function to determine the EC50, which are shown below in Table 2.

TLR7 = biological target: T2, TLR7 (Homo sapiens, UniProt Q9NYK1); assay: Human PBMC cell-based assay, TLR7 agonist stimulation; settings: human PBMCs; TLR7 agonist GS-986 400 nM; 6 hours; cytokines (IL-6 and IFNα) in supernatant; Table 2; read-out: TLR-7 EC50
T2 construct: lymphocytes, monocytes and dendritic cells that express TLR7, TLR8 and TLR9; endogenous in cells; host or cells: cryopreserved human PBMCs from healthy donors
T2 sequence (Q9NYK1 27-1049): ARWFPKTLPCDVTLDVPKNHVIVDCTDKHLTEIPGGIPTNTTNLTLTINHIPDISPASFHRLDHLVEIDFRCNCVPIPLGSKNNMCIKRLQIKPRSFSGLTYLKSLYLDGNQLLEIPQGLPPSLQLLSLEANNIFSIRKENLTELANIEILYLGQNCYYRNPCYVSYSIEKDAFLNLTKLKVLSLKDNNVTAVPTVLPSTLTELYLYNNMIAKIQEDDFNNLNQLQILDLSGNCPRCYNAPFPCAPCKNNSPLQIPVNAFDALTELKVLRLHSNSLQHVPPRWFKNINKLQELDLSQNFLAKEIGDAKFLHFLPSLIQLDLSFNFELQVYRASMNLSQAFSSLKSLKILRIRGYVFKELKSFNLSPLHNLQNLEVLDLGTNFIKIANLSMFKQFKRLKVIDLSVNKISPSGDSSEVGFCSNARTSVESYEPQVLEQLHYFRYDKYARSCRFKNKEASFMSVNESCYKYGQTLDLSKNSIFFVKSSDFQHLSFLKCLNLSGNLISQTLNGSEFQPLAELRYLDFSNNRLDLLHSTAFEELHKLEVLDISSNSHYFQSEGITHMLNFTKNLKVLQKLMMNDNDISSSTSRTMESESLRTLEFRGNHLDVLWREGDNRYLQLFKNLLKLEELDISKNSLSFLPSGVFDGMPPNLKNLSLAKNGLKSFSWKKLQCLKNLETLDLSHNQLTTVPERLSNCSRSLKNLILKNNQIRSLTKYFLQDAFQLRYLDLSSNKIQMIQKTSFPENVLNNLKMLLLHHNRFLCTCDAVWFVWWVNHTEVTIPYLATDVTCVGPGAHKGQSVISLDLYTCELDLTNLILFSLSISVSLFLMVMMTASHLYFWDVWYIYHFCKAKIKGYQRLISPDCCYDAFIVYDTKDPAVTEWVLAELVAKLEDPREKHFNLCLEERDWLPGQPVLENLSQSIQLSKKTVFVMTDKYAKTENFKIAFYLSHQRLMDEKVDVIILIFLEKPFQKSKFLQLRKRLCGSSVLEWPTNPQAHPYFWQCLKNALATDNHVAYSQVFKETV
Source text: as §1, §2, §3

EC50 (TLR9) | EC50 (TLR7) | Structure (SMILES)
61.3 nM | 66.6 nM | Cc1cc(-c2ccc3c(C)c(-c4cccc(C(=O)N5CCNCC5)c4)[nH]c3c2)cc(C)n1 [Example 22, (3-(6-(2,6-dimethylpyridin-4-yl)-3-methyl-1H-indol-2-yl)phenyl)(piperazin-1-yl)methanone]
27.9 nM | 67.9 nM | Cc1cc(-c2ccc3c(C)c(-c4cnc5c(c4)CNCC5)[nH]c3c2)cc(C)n1 [Example 16, 3-[6-(2,6-dimethyl-4-pyridyl)-3-methyl-1H-indol-2-yl]-5,6,7,8-tetrahydro-1,6-naphthyridine]
467 nM | 463 nM | Cc1c(-c2ccc(N3CCNCC3)nc2)[nH]c2cc(-c3cn[nH]c3)ccc12 [Example 9]
37.1 nM | 6.2 nM | CCc1c(-c2cnc(N3CCNCC3)nc2)[nH]c2cc(-c3cc(C)nc(C)c3)ccc12 [Example 14]
70.1 nM | 686 nM | Cc1cc(-c2ccc3c(C)c(C4=CCNCC4)[nH]c3c2)cc(C)n1 [Example 11, 6-(2,6-dimethylpyridin-4-yl)-3-methyl-2-(1,2,3,6-tetrahydropyridin-4-yl)-1H-indole]
430 nM | 328 nM | Cc1cc(-c2ccc3c(C)c(-c4ccc(C(=O)N[C@@H]5CCNC5)cc4)[nH]c3c2)cc(C)n1 [Example 19]
97.8 nM | 336 nM | Cc1cc(-c2ccc3c(C)c(-c4cccc(C(=O)N[C@H]5CCNC5)c4)[nH]c3c2)cc(C)n1 [Example 18]
169 nM | 2.7 nM | Cc1c(-c2cnc(N3CCNCC3)nc2)[nH]c2cc(-c3cc(C)c4ncnn4c3)ccc12 [Example 3]
134 nM | 28.3 nM | Cc1cc(-c2cnc3c(C)c(-c4ccc(N5CCNCC5)cc4)[nH]c3c2)cc(C)n1 [Example 28, 6-(2,6-dimethylpyridin-4-yl)-3-methyl-2-(4-(piperazin-1-yl)phenyl)-1H-pyrrolo[3,2-b]pyridine]
367 nM | 144 nM | Cc1c(-c2ccc(N3CCNCC3)nc2)[nH]c2cc(-c3ccnc4ccccc34)ccc12 [Example 8]
47.8 nM | 6.2 nM | CCc1c(-c2ccc(N3CCNCC3)nc2)[nH]c2cc(-c3cc(C)nc(C)c3)ccc12 [Example 12]
37.8 nM | 10.2 nM | Cc1cc(-c2ccc3c(C)c(-c4ccc(N5CCN(CCO)CC5)nc4)[nH]c3c2)cc(C)n1 [Example 30, 2-(4-(5-(6-(2,6-dimethylpyridin-4-yl)-3-methyl-1H-indol-2-yl)pyridin-2-yl)piperazin-1-yl)ethan-1-ol]
2830 nM | > 1000 nM | Cc1cc(-c2ccc3c(C)c(C4CCN(C(=O)c5cccnc5)CC4)[nH]c3c2)cc(C)n1 [Example 25]
174 nM | > 1000 nM | CCN1CCC(c2[nH]c3cc(-c4cc(C)nc(C)c4)ccc3c2C)CC1 [Example 13, 6-(2,6-dimethylpyridin-4-yl)-2-(1-ethylpiperidin-4-yl)-3-methyl-1H-indole]
422 nM | 193 nM | Cc1cc(-c2ccc3c(C)c(-c4cccc(C(=O)N[C@@H]5CCNC5)c4)[nH]c3c2)cc(C)n1 [Example 17, (R)-3-(6-(2,6-dimethylpyridin-4-yl)-3-methyl-1H-indol-2-yl)-N-(pyrrolidin-3-yl)benzamide]
83.6 nM | 127 nM | Cc1cc(-c2ccc3c(C)c(-c4ccc(C(=O)N5CCNCC5)cc4)[nH]c3c2)cc(C)n1 [Example 21]
3390 nM | > 1000 nM | Cc1cc(-c2ccc3c(C)c(C4CCN(C(=O)c5cncn5C)CC4)[nH]c3c2)cc(C)n1 [Example 27]
77.4 nM | 14.7 nM | Cc1cc(-c2cnc3c(C)c(-c4ccc(N5CCNCC5)nc4)[nH]c3c2)cc(C)n1 [Example 29]
202 nM | 509 nM | Cc1cc(-c2ccc3c(C)c(-c4ccc(S(=O)(=O)N5CCNCC5)cc4)[nH]c3c2)cc(C)n1 [Example 15]
518 nM | 58.8 nM | COc1ccc(-c2ccc3c(C)c(-c4ccc(N5CCNCC5)nc4)[nH]c3c2)cc1OC [Example 10]
69.3 nM | 4.4 nM | Cc1cc(-c2ccc3c(C)c(-c4ccc(N5CCNCC5)nc4)[nH]c3c2)ccn1 [Example 5]
131 nM | > 1000 nM | Cc1cc(-c2ccc3c(C)c(C4CCN(C(=O)CN(C)C)CC4)[nH]c3c2)cc(C)n1 [Example 24, 2-(dimethylamino)-1-(4-(6-(2,6-dimethylpyridin-4-yl)-3-methyl-1H-indol-2-yl)piperidin-1-yl)ethan-1-one]
244 nM | 291 nM | Cc1cc(-c2ccc3c(C)c(-c4ccc(C(=O)N[C@H]5CCNC5)cc4)[nH]c3c2)cc(C)n1 [Example 20]
2070 nM | 442 nM | Cc1noc(C)c1-c1ccc2c(C)c(-c3ccc(N4CCNCC4)nc3)[nH]c2c1 [Example 6]
1300 nM | > 1000 nM | Cc1cc(-c2ccc3c(C)c(C4CCN(C(=O)CC5CCNCC5)CC4)[nH]c3c2)cc(C)n1 [Example 26]
